Where two headings read alike, the source gives them in different places. Marks after values point to notes of the source that are not given here.
Legend:
[1] = tested on: amastigote forms of T. cruzi CL Brener strain; assay: Anti-trypanosomal activity assay (beta-galactosidase reporter, infected LLC-MK2 cells); assay type: cell-based; settings: Trypanosoma cruzi
Protocol: Assays were performed against amastigote forms of T. cruzi CL Brener strain, which expresses β-galactosidase derived from Escherichia coli, infecting monkey kidney (LLC-MK2) cells as described. Previously, LLC-MK2 host cells were cultivated in 96-wells microplates (10^3 cells/well). […] Then, the wells were washed with PBS to remove the extracellular parasites and the tested compounds were added in the final concentrations of 0.031, 0.125, 0.5, 2.0, 8.0, 32.0, 128 and 512 μM. After this, the microplates were incubated at 37°C, in CO2 atmosphere (5%), for 5 days. Then, 10 μL of FluoReporter lacZ/Galactosidase Quantitation Kit (Molecular Probes, ThermoFisher Scientific) were added and after 30 minutes the fluorometric reaction was read in a microplate reader (Synergy H1, Biotek) at 386 nm excitation and 448 nm emission. The metabolism of the substrate is directly correlated with the amount of β-galactosidase activity and, therefore, the number amastigotes. The percentage of activity for each compound was determined from the following formula: %activity = 100 –{[(X-PC)/(NC-PC)]x100}, where the optical density values of the samples (X), the positive controls (PC) and negative controls (NC) were used. Culture medium alone was used as positive control (PC) and cells with medium and 0.6% DMSO (v/v) as negative control (NC). All assays were performed in triplicate with two independent experiments.

LLC-MK2 cells = assay: Cytotoxicity in LLC-MK2 cells; assay type: cell-based, monkey; settings: % cytotoxicity in LLC-MK2 cells at 128 μM; standard deviation (N = 6) in parentheses
Description: Table 2 Anti-trypanosomal activity of cysteine protease inhibitors. | column: Cytotox LLC-MK2 ^c

[2] = tested on: Balb/C 3T3 clone A31 cells; assay: MTT colorimetric cytotoxicity assay; assay type: cell-based, mouse; settings: % cytotoxicity in Balb/C 3T3 clone A31 cells at 128 μM; standard deviation (N = 8) in parentheses
Protocol: Inhibition values were determined in the cell-based assay as previously described. […] Cells were plated at a concentration of 10^5 cell/mL in 96-well plates and incubated for 24 h. […] The cell viability was assessed during 24, 48 and 72 h using the MTT (Sigma-Aldrich) reagent, with an incubation time of 3 h. Formazan crystals were dissolved using a solubility reagent composed of DMSO, glacial acetic acid and […] for 1 h. The readout was obtained using Biotek Synergy HT plate reader at 570 nm. Benznidazole was used as control. This assay was done in quadruplicate in two independent experiments. Statistical analyses were made in GraphPad Prism 5. Concentration-response curves were fitted for the best compounds and the statistical parameters are provided with the graphs in S9 Fig in the supplemental material.

Recombinant cruzain = target: T1, Recombinant cruzain (Trypanosoma cruzi, UniProt P25779); assay: Enzyme kinetic assay for cruzain (Z-FR-AMC hydrolysis); assay type: biochemical; settings: pKi = -log10(Ki/M); uncertainty in parentheses; 37°C, pH 5.5
T1 construct: consisting of the catalytic domain of cruzipain but excluding the carboxy-terminal extension; made in house
T1 sequence (P25779 123-337 limits assumed): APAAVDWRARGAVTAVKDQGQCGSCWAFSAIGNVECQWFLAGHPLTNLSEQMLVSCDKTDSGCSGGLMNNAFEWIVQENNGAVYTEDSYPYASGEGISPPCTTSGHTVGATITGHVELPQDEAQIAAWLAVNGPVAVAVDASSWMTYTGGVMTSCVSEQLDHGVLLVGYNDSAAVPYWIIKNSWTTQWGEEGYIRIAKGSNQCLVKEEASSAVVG
Protocol: Recombinant cruzain, consisting of the catalytic domain of cruzipain but excluding the carboxy-terminal extension, was expressed and purified as previously described. Enzyme kinetic assays for cruzain were carried out at 37°C in 200 μL of a solution containing 100 mM acetate buffer pH 5.5, 300 mM NaCl, 5 mM dithiothreitol (DTT), 5% v/v dimethyl sulfoxide (DMSO), 0.01% v/v Triton X-100 and 0.15 nM cruzain, using Corning® 96-well black flat bottom microplates. (S)-N-(1-((cyanomethyl)amino)-1-oxo-3-phenylpropan-2-yl)benzamide was used as a positive control. The rate of the reaction was monitored using a Biotek Synergy HT plate reader through the fluorescence emission at 460 nm (excitation at 355 nm) due to the hydrolysis of the substrate Z-Phe-Arg-7-amido-4-methylcoumarin (Z-FR-AMC, Sigma-Aldrich). The enzyme stock aliquot was rapidly thawed at 37°C and kept on ice until activation, in which it was incubated for 20 min. in the assay buffer (100 mM acetate pH 5.5 and 5 mM DTT) followed by additional 2 min. incubation with inhibitors before the reaction was started by the addition of the substrate.
Visual inspection and a pre-reading of plate wells were performed to check for possible precipitation and background fluorescence, respectively. Fluorescence emission spectra were also recorded for all inhibitors, using the same excitation wavelength (355 nm) as for the fluorometric assay. […] The reaction was started by the addition of varying concentrations of the substrate and the wells monitored for a total of 5 minutes of reaction. The initial velocities of the substrate hydrolysis under first-order reaction were calculated by Gen5 Biotek software based on the linear-regression coefficient from the data fitting of Relative Fluorescence Unit (mRFU) as a function of time (min).
Each experiment was performed in duplicates for each compound being tested. A control measurement in absence of inhibitor (KM) was carried out for each setup plate and the kinetic affinity constants (Ki) were calculated from non-linear fit of Michaelis-Menten curves to the data of initial velocities as a function of eight different concentrations of the substrate Z-FR-AMC from 30.0–0.8 μM. All inhibitors were evaluated in two different concentrations, which were chosen based on a previous screening (percentage of inhibition) at 1.7 μM substrate (~KM). SigmaPlot (v. 10.0) was employed for the non-linear fit and the kinetic parameters determination.

cathepsin L [3] = target: T2, cathepsin L (Homo sapiens, UniProt P07711); assay: Enzyme kinetic assay for cathepsin L; assay type: biochemical; settings: pKi = -log10(Ki/M); uncertainty in parentheses; 37°C, pH 5.5
T2 sequence (P07711 114-333, species assumed): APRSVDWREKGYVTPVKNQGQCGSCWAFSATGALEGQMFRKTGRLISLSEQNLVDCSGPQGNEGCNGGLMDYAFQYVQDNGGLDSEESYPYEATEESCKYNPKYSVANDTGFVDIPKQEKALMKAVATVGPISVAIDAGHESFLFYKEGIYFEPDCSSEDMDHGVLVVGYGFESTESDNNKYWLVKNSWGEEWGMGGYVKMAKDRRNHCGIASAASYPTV
Protocol: (§1) Enzyme kinetic assays for cathepsin L were performed in a similar manner to the cruzain assays at 37°C in 200 μL of a solution containing 100 mM acetate buffer pH 5.5, 300 mM NaCl, 1 mM dithiothreitol (DTT), 1 mM EDTA, 5% v/v dimethyl sulfoxide (DMSO), 0.01% v/v Triton X-100 and 0.30 nM cathepsin L, using Corning® 96-well black flat bottom microplates. Using the QFRET technology, compounds 9–12 were tested for inhibition of cathepsin L-mediated cleavage of a synthetic peptide Z-Phe-Arg-AMC (10 μM final concentration) using 0.1 nM [final] human Cat L (prepared in-house). […]

cathepsin L [4] = target: T2, cathepsin L; settings: pIC50 = -log10(IC50/M); cited from earlier work
Cathepsin K = settings: pIC50 = -log10(IC50/M); cited from earlier work
Cathepsin B = settings: pIC50 = -log10(IC50/M); cited from earlier work
Cathepsin S = settings: pIC50 = -log10(IC50/M); cited from earlier work
human Cat L = target: T3, human Cat L (Homo sapiens, UniProt P07711); assay: Cat L inhibition assay (QFRET, Z-Phe-Arg-AMC cleavage); assay type: biochemical; settings: pIC50 = -log10(IC50/M); determined using the Cat L inhibition assay method of ref. 24; pH 6.4; read-out: Cathepsin L pIC50 (converted)
T3 construct: made in house
T3 sequence (P07711 114-333): as the sequence (P07711 114-333, species assumed) above
Protocol: as §1

[5] = 120 h, pEC50 = -log10(EC50/M), T. cruzi CL Brener amastigotes in LLC-MK2 cells, 5 days, read-out: pEC50 (anti-trypanosomal activity) (converted)
[6] = LLC-MK2, 0.125 μM, standard deviation (N = 6) in parentheses, read-out: %activity at 0.125 μM
[7] = LLC-MK2, 0.5 μM, standard deviation (N = 6) in parentheses, read-out: %activity at 0.5 μM
[8] = LLC-MK2, 2 μM, standard deviation (N = 6) in parentheses, read-out: %activity at 2 μM
[9] = LLC-MK2, 8 μM, standard deviation (N = 6) in parentheses, read-out: %activity at 8 μM
[10] = LLC-MK2, T. cruzi CL Brener strain, read-out: EC50 (anti-trypanosomal activity)

Row | Structure (SMILES) | EC50 [1, 5] | inhibition at 0.125 µM [1, 6] | inhibition at 0.5 µM [1, 7] | inhibition at 2 µM [1, 8] | inhibition at 8 µM [1, 9] | Cytotox LLC-MK2 (LLC-MK2 cells) | Cytotox Balb/C 3TC [2] | Ki (Recombinant cruzain) | Ki (cathepsin L [3]) | EC50 [1, 10] | Cathepsin L pIC50 (cathepsin L [4]) | Cathepsin K pIC50 (Cathepsin K) | Cathepsin B pIC50 (Cathepsin B) | Cathepsin S pIC50 (Cathepsin S) | IC50 (human Cat L) | inhibition at 0.125 µM ([1]; LLC-MK2, read-out: %activity at 0.125 μM) | inhibition at 0.5 µM ([1]; LLC-MK2, read-out: %activity at 0.5 μM) | inhibition at 2 µM ([1]; LLC-MK2, read-out: %activity at 2 μM) | inhibition at 8 µM ([1]; LLC-MK2, read-out: %activity at 8 μM)
1 | O=C(Cn1ccnc1[N+](=O)[O-])NCc1ccccc1 [Compound 1, benznidazole] | 2510 nM | 3% | 7% | 33% | 59% | 41 (8) % | 0 (0) % | – | – | – | – | – | – | – | – | – | – | – | –
2 | N#CC1(NC(=O)[C@H](Cc2ccccc2)N[C@H](c2ccccc2)C(F)(F)F)CC1 [Compound 5, (S)-N-(1-cyanocyclopropyl)-3-phenyl-2-(((R)-2,2,2-trifluoro-1-phenyl-ethyl)amino)propanamide] | 126 nM | 44% | 55% | 62% | 70% | 0 (0) % | 1 (7) % | 2510 nM | 794 nM | 120 nM | – | – | – | – | – | – | – | – | –
3 | N#CCNC(=O)[C@@H]1CCCC[C@H]1C(=O)N1CCCCC1 [Compound 7] | – | 0% | 2% | 9% | 12% | 4 (3) % | 2 (7) % | 7940 nM | – | – | < 4 ^e | 7.1 ^e | 5.1 ^e | 5.7 ^e | – | – | – | – | –
4 | N#CCNC(=O)[C@@H]1CCCC[C@H]1C(=O)N1CCN(c2ccccc2)CC1 [Compound 8] | – | 1% | 7% | 21% | 35% | 29 (8) % | 0 (0) % | 5010 nM | – | – | < 4 ^e | 8.1 ^e | 6.3 ^e | 6.0 ^e | – | – | – | – | –
5 | CS(=O)(=O)c1ccc(N2CCN(C(=O)[C@@H]3CCCC[C@H]3C(=O)NC3(C#N)CC3)CC2)cc1 [Compound 9] | – | 6% | 15% | 30% | 33% | 0 (0) % | 3 (7) % | 5010 nM | – | – | – | 7.7 ^g | 5.6 ^g | 5.7 ^g | > 10000 nM | – | – | – | –
6 | COc1ccc(N2CCN(C(=O)[C@@H]3CCCC[C@H]3C(=O)NC3(C#N)CC3)[C@H](C)C2)cc1OC [Compound 10] | – | – | – | – | – | 15(3) % | 0 (0) % | 1260 nM | – | – | – | 8.4 ^g | 5.7 ^g | 5.8 ^g | > 10000 nM | 6% | 22% | 26% | 28%
7 | COc1cc(N2CCN(C(=O)[C@@H]3CCCC[C@H]3C(=O)NC3(C#N)CC3)[C@H](C)C2)ccc1C1CC1 [Compound 11] | 251 nM | 33% | 62% | 76% | 83% | 36 (7) % | 0 (0) % | 2510 nM | – | 250 nM | – | 8.5 ^g | 5.9 ^g | 5.9 ^g | > 10000 nM | – | – | – | –
8 | Cc1nn(C)c2cc(N3CCN(C(=O)[C@@H]4CCCC[C@H]4C(=O)NC4(C#N)CC4)[C@H](C)C3)ccc12 [Compound 12] | 1260 nM | 20% | 40% | 45% | 50% | 8 (2) % | 0 (0) % | 3160 nM | – | 1300 nM | – | 8.0 ^g | 6.1 ^g | 5.9 ^g | > 10000 nM | – | – | – | –

Source: article PMC5344518, “Anti-trypanosomal activity of non-peptidic nitrile-based cysteine protease inhibitors” (PLoS Neglected Tropical Diseases, 2017)
